What follows are compounds tested on LPS induced TNF release (assay: Lipopolysaccharide-Activated THP1 Cell TNF Production Assay). Conditions: Homo sapiens, THP-1; THP1 cells, bacterial LPS, TNF-α secretion at 37° C. for 3 h.
Assay type: cell-based
Procedure: Lipopolysaccharide-Activated THP1 Cell TNF Production Assay
THP1 cells are resuspended in fresh THP1 media (RPMI 1640, 10% heat-inactivated FBS, 1xPGS, 1XNEAA, plus 30 μM βME) at a concentration of 1E6/mL. One hundred microliters of cells per well are plated in a polystyrene 96-well tissue culture. One microgram per mL of bacterial LPS is prepared in THP1 media and is transferred to the wells. Test compounds are dissolved in 100% DMSO and are serially diluted 3 fold in a polypropylene 96-well microtiter plate (drug plate). HI control and LO control wells contain only DMSO. One microliter of test compound from the drug plate followed by 10 μL of LPS are transferred to the cell plate. The treated cells are induced to synthesize and secrete TNF-α at 37° C. for 3 h. Forty microliters of conditioned media are transferred to a 96-well polypropylene plate containing 110 μL of ECL buffer (50 mM Tris-HCl pH 8.0, 100 mM NaCl, 0.05% Tween 20, 0.05% NaN3 and 1% FBS) supplemented with 0.44 nM MAB610 monoclonal Ab (R&D Systems), 0.34 nM ruthenylated AF210NA polyclonal Ab (R&D Systems) and […] sheep anti-mouse M280 Dynabeads (Dynal). After a 2 h incubation at room temperature with shaking, the reaction is read on the ECL M8 Instrument (IGEN Inc.). A low voltage is applied to the ruthenylated TNF-α immune complexes, which in the presence of TPA (the active component in Origlo), results in a cyclical redox reaction generating light at […]. The amount of secreted TNF-α in the presence of compound compared with that in the presence of DMSO vehicle alone (HI control) is calculated using the formula: % control (POC)=(cpd−average LO)/(average HI−average LO)*100. Data (consisting of POC and inhibitor concentration in μM) is fitted to a 4-parameter equation (y=A+((B−A)/(1+((x/C)^D))), where A is the minimum y (POC) value, B is the maximum y (POC), C is the x (cpd concentration) at the point of inflection and D is the slope factor) using a Levenburg-Marquardt non-linear regression algorithm.

| Structure (SMILES) | IC50 |
| --- | --- |
| CC(C)NC[C@H]1CCCN1c1cc(-c2ccncc2)c(-c2ccc3ccccc3c2)c(=O)n1C [Example 30, 6-[2-(Isopropylamino-methyl)-pyrrolidin-1-yl]-1-methyl-3-naphthalen-2-yl-1H-4[4,4′]bipyridinyl-2-one] | ≤ 20 µM |
| Cn1c(C2CCN(C[C@@H](Cc3ccccc3)NC(=O)OC(C)(C)C)CC2)cc(-c2ccncc2)c(-c2ccc3ccccc3c2)c1=O [Example 18, [(1R)-Benzyl-2-(1′-methyl-5′-naphthalen-2-yl-6′-oxo-3,4,5,6,1′,6′-hexahydro-2H-[4,2′;4′,4″]terpyridin-1-yl)-ethyl]-carbamic acid tert-butyl ester] | ≤ 20 µM |
| CC(C)N[C@@H](Cc1ccccc1)CN1CCC(c2cc(-c3ccncc3)c(-c3ccc4ccccc4c3)c(=O)n2C)CC1 [Example 23, 1-{(2S)-Isopropylamino-3-phenyl-propyl}-1′-methyl-5′-naphthalen-2-yl-1,2,3,4,5,6-hexahydro-1′H-[4,2′;4′,4″]terpyridin-6′-one] | ≤ 20 µM |
| CC(C)NC[C@H]1CCCN1c1nc(-c2ccncc2)c(-c2cccc(C3CC3)c2)c(=O)n1C [Example 6, 5-(3-Cyclopropyl-phenyl)-2-[2-(isopropylamino-methyl)-pyrrolidin-1-yl]-3-methyl-6-pyridin-4-yl-3H-pyrimidin-4-one] | ≤ 20 µM |
| CC(C)NC[C@H]1CCCN1c1nc(-c2ccncc2)c(-c2ccc(Cl)cc2)c(=O)n1C [Example 1] | ≤ 20 µM |
| Cn1c(C2CCCN2CCN)cc(-c2ccncc2)c(-c2ccc3ccccc3c2)c1=O (centres unmarked) [Example 28, 6-[1-(2-Amino-ethyl)-pyrrolidin-2-yl]-1-methyl-3-naphthalen-2-yl-1H-[4,4′]bi-pyridinyl-2-one] | ≤ 20 µM |
| Cn1c(C2CCN(CC(C)(C)O)C2)cc(-c2ccncc2)c(-c2ccc3ccccc3c2)c1=O (centres unmarked) [Example 26, 6-[1-(2-Hydroxy-2-methyl-propyl)-pyrrolidin-3-yl]-1-methyl-3-naphthalen-2-yl-1H-[4,4′]bipyridinyl-2-one] | ≤ 20 µM |
| Cc1cccc(-c2c(-c3ccncc3)nc(N3CCC[C@@H]3CNC(C)C)n(C)c2=O)c1 [Example 7, 2-[2-(Isopropylamino-methyl)-pyrrolidin-1-yl]-3-methyl-6-pyridin-4-yl-5-m-tolyl-3H-pyrimidin-4-one] | ≤ 20 µM |
| COC[C@@H]1CCCN1c1nc(-c2ccnc(N[C@@H](C)c3ccccc3)c2)c(-c2cccc(C)c2)c(=O)n1C [Example 10, 2-(2-Methoxymethyl-pyrrolidin-1-yl)-3-methyl-6-[2-(1-phenyl-ethylamino)-pyridin-4-yl]-5-m-tolyl-3H-pyrimidin-4-one] | ≤ 20 µM |
| Cn1c(C2CCN(CC(C)(C)O)CC2)cc(-c2ccncc2)c(-c2ccc3ccccc3c2)c1=O [Example 13, 1-(2-Hydroxy-2-methyl-propyl)-1′-methyl-5′-naphthalen-2-yl-1,2,3,4,5,6-hexahydro-1′H-[4,2′;4′,4″]terpyridin-6′-one] | ≤ 20 µM |
| Cn1c(C2CCCN2CCNC(=O)OC(C)(C)C)cc(-c2ccncc2)c(-c2ccc3ccccc3c2)c1=O (centres unmarked) [Example 27, {2-[2-(1-Methyl-5-naphthalen-2-yl-6-oxo-1,6-dihydro-[4,4′]bipyridinyl-2-yl)-pyrrolidin-1-yl]-ethyl}-carbamic acid tert-butyl ester] | ≤ 20 µM |
| CC(C)NC[C@@H]1CCCN1c1nc(-c2ccncc2)c(-c2ccc(Cl)cc2)c(=O)n1C [Example 2] | ≤ 20 µM |
| CC(C)N1CC(c2cc(-c3ccncc3)c(-c3ccc4ccccc4c3)c(=O)n2C)CC1CO (centres unmarked) [Example 16, 6-[5-(hydroxymethyl)-1-(methylethyl)pyrrolidin-3-yl]-1-methyl-3-(2-naphthyl)-4-(4-pyridyl)hydropyridin-2-one] | ≤ 20 µM |
| CC(C)NCC1CCCN1c1cc(-c2ccncc2)c(-c2ccc3ccccc3c2)nn1 (centres unmarked) [Example 14, Isopropyl-[1-(6-naphthalen-2-yl-5-pyridin-4-yl-pyridazin-3-yl)-pyrrolidin-2-ylmethyl]-amine] | ≤ 20 µM |
| Cn1c(C2CCN(C[C@H](N)Cc3ccccc3)CC2)cc(-c2ccncc2)c(-c2ccc3ccccc3c2)c1=O [Example 19, 1-{(2R)-Amino-3-phenyl-propyl}-1′-methyl-5′-naphthalen-2-yl-1,2,3,4,5,6-hexahydro-1′H-[4,2′;4′,4″]terpyridin-6′-one] | ≤ 20 µM |
| CC(C)NC[C@H]1CCCN1c1nc(-c2ccncc2)c(-c2ccc3ccccc3c2)c(=O)n1C [Example 8, 2-[2-(Isopropylamino-methyl)-pyrrolidin-1-yl]-3-methyl-5-naphthalen-2-yl-6-pyridin-4-yl-3H-pyrimidin-4-one] | ≤ 20 µM |
| CC(O)CN1CCC(c2cc(-c3ccncc3)c(-c3ccc4ccccc4c3)c(=O)n2C)C1 (centres unmarked) [Example 25, 6-[1-(2-Hydroxy-propyl)-pyrrolidin-3-yl]-1-methyl-3-naphthalen-2-yl-1H-[4,4′]bipyridinyl-2-one] | ≤ 20 µM |
| C[C@@H](O)CN1CCC(c2cc(-c3ccncc3)c(-c3ccc4ccccc4c3)c(=O)n2C)CC1 [Example 11, 1-(2R-Hydroxy-propyl)-1′-methyl-5′-naphthalen-2-yl-1,2,3,4,5,6-hexahydro-1′H-[4,2′;4′,4″]terpyridin-6′-one] | ≤ 20 µM |
| Cn1c(C2CCN(C[C@@H](N)Cc3ccccc3)CC2)cc(-c2ccncc2)c(-c2ccc3ccccc3c2)c1=O [Example 22, 1-{(2S)-Amino-3-phenyl-propyl}-1′-methyl-5′-naphthalen-2-yl-1,2,3,4,5,6-hexahydro-1′H-[4,2′;4′,4″]terpyridin-6′-one] | ≤ 20 µM |
| CC(C)N[C@H](Cc1ccccc1)CN1CCC(c2cc(-c3ccncc3)c(-c3ccc4ccccc4c3)c(=O)n2C)CC1 [Example 20, 1-{(2R)-Isopropylamino-3-phenyl-propyl}-1′-methyl-5′-naphthalen-2-yl-1,2,3,4,5,6-hexahydro-1′H-[4,2′;4′,4″]terpyridin-6′-one] | ≤ 20 µM |
| Cn1c(C2CCN(CCNC(=O)OC(C)(C)C)C2)cc(-c2ccncc2)c(-c2ccc3ccccc3c2)c1=O (centres unmarked) [Example 24, {2-[3-(1-Methyl-5-naphthalen-2-yl-6-oxo-1,6-dihydro-[4,4′]bipyridinyl-2-yl)-pyrrolidin-1-yl]-ethyl}-carbamic acid tert-butyl ester] | ≤ 20 µM |
| CC(C)NCC1CCCN1c1cc(-c2ccncc2)c(-c2ccc(Cl)cc2)c(=O)n1C (centres unmarked) [Example 31, 3-(4-Chlorophenyl)-1-methyl-6-(2-{[(methylethyl)amino]methyl}pyrrolidinyl)-4-(4-pyridyl)hydropyridin-2-one] | ≤ 20 µM |
| COC[C@@H]1CCCN1c1nc(-c2ccnc(Cl)c2)c(-c2cccc(C)c2)c(=O)n1C [Example 9, 6-(2-Chloro-pyridin-4-yl)-2-(2-methoxymethyl-pyrrolidin-1-yl)-3-methyl-5-m-tolyl-3H-pyrimidin-4-one] | ≤ 20 µM |
| C=Cc1cccc(-c2c(-c3ccncc3)nc(N3CCC[C@@H]3CNC(C)C)n(C)c2=O)c1 [Example 5, 2-[2-(Isopropylamino-methyl)-pyrrolidin-1-yl]-3-methyl-6-pyridin-4-yl-5-(3-vinyl-phenyl)-3H-pyrimidin-4-one] | ≤ 20 µM |
| Cn1c(C2CCN(C[C@H](Cc3ccccc3)NC(=O)OC(C)(C)C)CC2)cc(-c2ccncc2)c(-c2ccc3ccccc3c2)c1=O [Example 21, [(1S)-Benzyl-2-(1′-methyl-5′-naphthalen-2-yl-6′-oxo-3,4,5,6,1′,6′-hexahydro-2H-[4,2′;4′,4″]terpyridin-1-yl)-ethyl]-carbamic acid tert-butyl ester] | ≤ 20 µM |
| Cn1c(C2CNC(CO)C2)cc(-c2ccncc2)c(-c2ccc3ccccc3c2)c1=O (centres unmarked) [Example 15, 6-[5-(Hydroxymethyl)pyrrolidin-3-yl]-1-methyl-3-(2-naphthyl)-4-(4-pyridyl)-hydropyridin-2-one] | ≤ 20 µM |
| Cn1c(N2CCCC2CO)cc(-c2ccncc2)c(-c2ccc(Cl)cc2)c1=O (centres unmarked) [Example 17, 3-(4-chlorophenyl)-6-[2-(hydroxymethyl)pyrrolidinyl]-1-methyl-4-(4-pyridyl)-hydropyridin-2-one] | ≤ 20 µM |
| CC(C)NC[C@H]1CCCN1c1nc(-c2ccncc2)c(-c2cccc(Br)c2)c(=O)n1C [Example 4, 5-(3-Bromo-phenyl)-2-[2-(isopropylamino-methyl)-pyrrolidin-1-yl]-3-methyl-6-pyridin-4-yl-3H-pyrimidin-4-one] | ≤ 20 µM |
| CC(C)NC[C@H]1CCCN1c1c(Cl)c(-c2ccncc2)c(-c2ccc3ccccc3c2)c(=O)n1C (stereo in doubt) [Example 29, 5-Chloro-6-[2-(isopropylamino-methyl)-pyrrolidin-1-yl]-1-methyl-3-naphthalen-2-yl-1H-[4,4′]bipyridinyl-2-one] | ≤ 20 µM |
